# From ChEMBL document CHEMBL3045695, “2D and 3D QSAR analyses to predict favorable substitution sites in anilino-monoindolylmaleimides acting as PKCII selective inhibitors” (Med Chem Res, 2011)
# pIC50: −log10 of the molar value.
# Target: Protein kinase C beta type (Homo sapiens, UniProt P05771)
# Test: Inhibition of PKCbeta2 (unknown origin)
# Details: read-out: IC50
# Protein kinase C beta type, sequence (P05771 whole entry): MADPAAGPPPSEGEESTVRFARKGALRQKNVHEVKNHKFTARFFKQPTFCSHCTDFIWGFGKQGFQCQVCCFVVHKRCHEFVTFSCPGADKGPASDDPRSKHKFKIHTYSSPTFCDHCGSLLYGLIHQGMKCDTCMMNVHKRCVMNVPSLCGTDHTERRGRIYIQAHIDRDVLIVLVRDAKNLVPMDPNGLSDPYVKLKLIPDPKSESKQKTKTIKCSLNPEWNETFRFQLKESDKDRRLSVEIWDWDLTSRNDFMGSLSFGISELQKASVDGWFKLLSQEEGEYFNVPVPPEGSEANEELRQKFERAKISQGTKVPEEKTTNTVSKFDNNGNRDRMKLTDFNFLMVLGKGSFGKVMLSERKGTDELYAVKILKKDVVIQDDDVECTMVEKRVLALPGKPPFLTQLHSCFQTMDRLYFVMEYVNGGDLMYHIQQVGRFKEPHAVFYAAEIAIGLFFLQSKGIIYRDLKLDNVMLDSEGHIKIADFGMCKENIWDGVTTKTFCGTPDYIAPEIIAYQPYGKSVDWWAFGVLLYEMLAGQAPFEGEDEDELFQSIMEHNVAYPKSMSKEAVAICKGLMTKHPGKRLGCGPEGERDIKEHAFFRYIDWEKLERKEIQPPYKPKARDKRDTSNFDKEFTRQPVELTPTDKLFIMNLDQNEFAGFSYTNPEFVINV
row,SMILES,pIC50
1,NC[C@H]1Cc2c(C3=C(Nc4ccccc4)C(=O)NC3=O)c3ccccc3n2C1,8.85
2,CN(C)C[C@H]1CCn2c(c(C3=C(Nc4ccccc4)C(=O)NC3=O)c3ccccc32)C1,8.70
3,CCNC[C@H]1Cc2c(C3=C(Nc4ccccc4)C(=O)NC3=O)c3ccccc3n2C1,8.62
4,CN(C)C[C@@H]1CCn2c(c(C3=C(Nc4ccccc4)C(=O)NC3=O)c3ccccc32)C1,7.60
5,CC(=O)NC[C@H]1Cc2c(C3=C(Nc4ccccc4)C(=O)NC3=O)c3ccccc3n2C1,8.10
6,CN(C)C[C@@H]1Cc2c(C3=C(Nc4ccccc4)C(=O)NC3=O)c3ccccc3n2C1,8.10
7,CNC[C@H]1Cc2c(C3=C(Nc4ccccc4)C(=O)NC3=O)c3ccccc3n2C1,8.66
8,O=C1NC(=O)C(c2c3n(c4ccccc24)CC[C@@H](CO)C3)=C1Nc1ccccc1,7.77
9,O=C1NC(=O)C(c2c3n(c4ccccc24)CC[C@H](CO)C3)=C1Nc1ccccc1,8.22
10,CCN(CC)C[C@H]1Cc2c(C3=C(Nc4ccccc4)C(=O)NC3=O)c3ccccc3n2C1,7.49
11,CCN(C)C[C@H]1Cc2c(C3=C(Nc4ccccc4)C(=O)NC3=O)c3ccccc3n2C1,8.30
12,O=C1NC(=O)C(c2c3n(c4ccccc24)C[C@H](CO)C3)=C1Nc1ccccc1,7.85
13,CN(C)C[C@@H]1CCc2c(C3=C(Nc4ccccc4)C(=O)NC3=O)c3ccccc3n2C1,8.22

# Same assay, conditions: read-out: pIC50 (converted)
row,SMILES,IC50 [nM]
1,CN1CCN(CCCn2cc(C3=C(Nc4ccccc4)C(=O)NC3=O)c3ccccc32)CC1,23.4
2,O=C1NC(=O)C(c2c[nH]c3ccccc23)=C1Nc1cccc(C(F)(F)F)c1,1480
3,Cc1ccccc1NC1=C(c2c[nH]c3ccccc23)C(=O)NC1=O,2190
4,O=C1NC(=O)C(c2cn(CCCN3CCCCC3)c3ccccc23)=C1Nc1ccccc1,17.4
5,Cc1ccc(NC2=C(c3c[nH]c4ccccc34)C(=O)NC2=O)cc1,490
6,COc1cccc(NC2=C(c3c[nH]c4ccccc34)C(=O)NC2=O)c1,759
7,N=C(N)SCCCn1cc(C2=C(Nc3ccccc3)C(=O)NC2=O)c2ccccc21,2.04
8,CN(C)CCCCCn1cc(C2=C(Nc3ccccc3)C(=O)NC2=O)c2ccccc21,41.7
